In patent publication US20090088457A1, “Primary Amines as Renin Inhibitors” (Actelion Pharmaceuticals, Ltd., priority 2006, published 2009):

Target: T1, recombinant human renin (Homo sapiens, UniProt P00797)
T1 sequence (P00797 67-406): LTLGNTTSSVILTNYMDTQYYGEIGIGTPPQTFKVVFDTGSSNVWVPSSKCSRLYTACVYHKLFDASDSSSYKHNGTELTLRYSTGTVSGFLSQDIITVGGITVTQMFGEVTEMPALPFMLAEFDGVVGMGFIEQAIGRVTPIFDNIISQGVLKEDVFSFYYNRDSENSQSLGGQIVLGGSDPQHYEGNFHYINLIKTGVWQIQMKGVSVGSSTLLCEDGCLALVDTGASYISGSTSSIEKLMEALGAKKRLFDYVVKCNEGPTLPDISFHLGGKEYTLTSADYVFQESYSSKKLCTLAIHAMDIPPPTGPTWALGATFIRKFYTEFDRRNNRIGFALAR
Test: Primary renin inhibition assay: IC50 in buffer, 384 well MTP (AngI quantified by EIA)
Format: biochemical
Settings: human tetradecapeptide substrate, 37° C. for 3 h
Description: 1. Enzyme Immuno Assay (EIA) to Estimate AngI Accumulation and Renin Inhibition
1.1 Preparation of AngI-BSA Conjugate
1.3 mg (1 μmol) of AngI [1-10 (Bachem, H-1680)] and 17 mg (0.26 μmol) of BSA (Fluka, 05475) were dissolved in 4 mL of 0.1M phosphate buffer, pH 7.4, after which 2 mL of a 1:100 dilution of glutaraldehyde in H2O (Sigma G-5882) was added dropwise. The mixture was incubated overnight at 4° C., then dialyzed against 2 liters of 0.9% NaCl, twice for 4 h at rt, followed by dialysis against 2 liters of PBS 1× overnight at rt. The solution was then filtered with a Syringe filter, 0.45 μm (Nalgene, Cat. No. 194-2545). The conjugate can be stored in polypropylene tubes in 0.05% sodium azide at 4° C. for at least 12 months.
1.2 Preparation of BSA-AngI Coated MTP
Microtiter plates (MPT384, MaxiSorp™, Nunc) were incubated overnight at 4° C. with 80 μl of AngI (1-10)/BSA conjugate, diluted 1:100'000 in PBS 1× in a teflon beaker (exact dilution dependent on batch of conjugate), emptied, filled with 90 μl of blocking solution [0.5% BSA (Sigma A-2153) in PBS 1×, 0.02% NaN3], and incubated for at least 2 h at rt, or overnight at 4° C. 96 well MTP (MaxiSorp™, Nunc) were coated with 200 μl conjugate and blocked with 250 μl blocking solution as above, except that the blocking solution contained 3% BSA. The plates can be stored in blocking solution at 4° C. for 1 month.
1.3 AngI-EIA in 384 Well MTP
The AngI (1-10)/BSA coated MTP were washed 3 times with wash buffer (PBS 1×, 0.01% Tween 20) and filled with 75 μl of primary antibody solution (anti-AngI antiserum, pre-diluted 1:10 in horse serum), diluted to a final concentration of 1:100'000 in assay buffer (PBS 1×, 1 mM EDTA, 0.1% BSA, pH 7.4). 5 μl of the renin reaction (or standards in assay buffer) (see below) were added to the primary antibody solution and the plates were incubated overnight at 4° C. After the incubation the plates were washed 3 times with wash buffer and incubated with secondary antibody [anti-rabbit IgG, linked to horseradish peroxidase (Amersham Bioscience, NA 934V), diluted 1:2'000 in wash buffer] for 2 h at rt. The plates were washed 3 times with wash buffer and then incubated for 1 h at rt with substrate solution [1.89 mM ABTS (2.2′-azino-di-(3-ethyl-benzthiazolinsulfonate)] (Roche Diagnostics, 102 946) and 2.36 mM H2O2 [30%, (Fluka, 95300] in substrate buffer (0.1M sodium acetate, 0.05M sodium dihydrogen phosphate, pH 4.2). The OD of the plate was read at 405 nm in a microplate reader (FLUOStar Optima from BMG). The production of AngI during the renin reaction was quantified by comparing the OD of the sample with the OD of a standard curve of AngI(1-10), measured in parallel.
2. Primary Renin Inhibition Assay: IC50 in Buffer, 384 Well MTP
The renin assay was adapted from an assay described before (Fischli W. et al., Hypertension, 1991, 18:22-31) and consists of two steps: in the first step, recombinant human renin is incubated with its substrate (commercial human tetradecapeptide renin substrate) to create the product Angiotensin I (AngI). In the second step, the accumulated AngI is measured by an immunological assay (enzyme immuno assay, EIA). The detailed description of this assay is found below. The EIA is very sensitive and well suited for renin activity measurements in buffer or in plasma. Due to the low concentration of renin used in this assay (2 fmol per assay tube or 10 pM) it is possible to measure inhibitor affinities in this primary assay down to low pM concentration.
Recombinant human renin (3 pg/μl) in assay buffer (PBS 1×, 1 mM EDTA, 0.1% BSA, pH 7.4), human tetradecapeptide (1-14) substrate (Bachem, M-1120) [5 μM in 10 mM HCl], hydroxyquinoline sulfate (Fluka, 55100) [30 mM in H2O] and assay buffer were premixed at 4° C. at a ratio of 100:30:10:145. 47.5 μl per well of this premix was transferred into polypropylene plates (MTP384, Nunc). […]

COCCc1ccc(Cl)c(CN(C(=O)[C@@H](CN)Cc2ccc(OCCOc3c(Cl)cc(C)cc3Cl)nc2)C2CC2)c1 [Example 18, (R)-2-Aminomethyl-N-[2-chloro-5-(2-methoxy-ethyl)-benzyl]-N-cyclopropyl-3-{6-[2-(2,6-dichloro-4-methyl-phenoxy)-ethoxy]-pyridin-3-yl}-propionamide]
IC50: 0.2 nM

Mixture of (R)-2-aminomethyl-3-{2-[(R)-3-(3-chloro-2,6-difluoro-phenoxy)-pyrrolidin-1-yl]-thiazol-5-yl}-N-cyclopropyl-N-(2,3-dichloro-benzyl)-propionamide and (S)-2-aminomethyl-3-{2-[(R)-3-(3-chloro-2,6-difluoro-phenoxy)-pyrrolidin-1-yl]-thiazol-5-yl}-N-cyclopropyl-N-(2,3-dichloro-benzyl)-propionamide [Example 14]
IC50: 45 nM

COCCc1ccc(Cl)c(CN(C(=O)[C@@H](CN)Cc2ccc(N3CC[C@@H](Oc4c(Cl)cc(C)cc4Cl)C3)nc2)C2CC2)c1 [Example 20, (R)-2-Aminomethyl-N-[2-chloro-5-(2-methoxy-ethyl)-benzyl]-N-cyclopropyl-3-{6-[(R)-3-(2,6-dichloro-4-methyl-phenoxy)-pyrrolidin-1-yl]-pyridin-3-yl}-propionamide]
IC50: 0.5 nM

Mixture of (R)-2-aminomethyl-N-cyclopropyl-N-(2,3-dichloro-benzyl)-3-{2-[(R)-3-(2,6-dichloro-3,4-dimethyl-phenoxy)-pyrrolidin-1-yl]-thiazol-5-yl}-propionamide and (S)-2-aminomethyl-N-cyclopropyl-N-(2,3-dichloro-benzyl)-3-{2-[(R)-3-(2,6-dichloro-3,4-dimethyl-phenoxy)-pyrrolidin-1-yl]-thiazol-5-yl}-propionamide [Example 11]
IC50: 17 nM

Cc1cccc(CN(C(=O)C(CN)Cc2cnc(OCCOc3c(F)ccc(F)c3Cl)s2)C2CC2)c1C (racemic) [Example 2, (rac.)-3-Amino-2-{2-[2-(2-chloro-3,6-difluoro-phenoxy)-ethoxy]-thiazol-5-ylmethyl}-N-cyclopropyl-N-(2,3-dimethyl-benzyl)-propionamide]
IC50: 7.8 nM

COCCc1ccc(Cl)c(CN(C(=O)[C@@H](CN)Cc2ccc(N3CC[C@H](Oc4c(Cl)cc(C)cc4Cl)C3)nc2)C2CC2)c1 [Example 22, (R)-2-Aminomethyl-N-[2-chloro-5-(2-methoxy-ethyl)-benzyl]-N-cyclopropyl-3-{6-[(S)-3-(2,6-dichloro-4-methyl-phenoxy)-pyrrolidin-1-yl]-pyridin-3-yl}-propionamide]
IC50: 0.3 nM
